These are literature values, as cited in US8906604B2, “Store-operated calcium cellular assay” (National Center for Biological Sciences, priority 2009, dated 2014).

For orientation: Kd means the constant that tells how readily two partners part at equilibrium.

For this data set the following is noted: in Drosophila S2 cells; published value (Hardie et al. 1996); read-out: Kd value for Indo-1.

Regarding `Cc1ccc(N(CC(=O)O)CC(=O)O)c(OCCOc2cc(-c3cc4ccc(C(=O)O)cc4[nH]3)ccc2N(CC(=O)O)CC(=O)O)c1` [Indo-1], the Kd was 1160 nM.
